The values that follow come from publication PMC5520691, “An enhanced bioluminescence-based Annexin V probe for apoptosis detection in vitro and in vivo” (Cell Death & Disease, 2017).

For orientation: Kd means a measure of binding affinity in units of concentration.

For the assay, the target named is T1, ArFP (Annexin V-Renilla luciferase RLuc8 fusion protein) (Homo sapiens, UniProt P08758).
T1 construct: gene ANXA5; Annexin V fused N-terminal to the RLuc8 reporter (Renilla reniformis luciferase mutant) via a short linker (GGSGGS by the primers); N-terminal 6xHis tag, pET-30 Xa/LIC, E. coli T7 Express, Ni-NTA; primers cover the Annexin V start (ATGGCACAGGTTCTC, MAQVL) and end (CGEDD)
T1 sequence (P08758 1-320): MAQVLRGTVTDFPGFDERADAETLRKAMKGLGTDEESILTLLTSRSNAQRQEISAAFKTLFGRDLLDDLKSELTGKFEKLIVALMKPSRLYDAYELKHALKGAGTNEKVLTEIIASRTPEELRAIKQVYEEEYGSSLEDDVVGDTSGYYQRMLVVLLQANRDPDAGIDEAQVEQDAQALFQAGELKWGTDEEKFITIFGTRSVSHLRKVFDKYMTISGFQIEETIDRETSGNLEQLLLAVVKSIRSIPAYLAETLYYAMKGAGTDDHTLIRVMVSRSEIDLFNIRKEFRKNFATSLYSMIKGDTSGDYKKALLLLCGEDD
In words: isothermal titration calorimetry, vesicles titrated into protein, independent binding model. The note with it: read-out: Binding affinity for PS (KD).

`CCCCCCCC/C=C\CCCCCCCC(=O)O[C@H](COC(=O)CCCCCCCCCCCCCCC)COP(=O)(O)OC[C@H](N)C(=O)O` [POPS, 1-palmitoyl-2-oleoyl-sn-glycero-3-[phospho-L-serine]]: the dissociation constant Kd is 20.7 µM.
